How the values were obtained:
HBL-1 cells = experiment: Therapeutic effect on the B-cell lymphoma HBL-1 subcutaneous tumor model; format: in vivo, NOD/SCID mice; conditions: HBL-1 model, 40 mg/kg intragastrically once every other day, 9 times; vs solvent group
Colon cancer HT29 = experiment: Cell proliferative activity (MTT / cck-8); format: cell-based; conditions: Homo sapiens, HT-29, read-out: Half-Inhibitory Concentration IC50 HT29
Colon cancer HCT116 = experiment: Cell proliferative activity (MTT / cck-8); format: cell-based; conditions: Homo sapiens, HCT-116, read-out: Half-Inhibitory Concentration IC50 HCT116
Breast cancer SKBR3 = experiment: Cell proliferative activity (MTT / cck-8); format: cell-based; conditions: Homo sapiens, SK-BR-3, read-out: Half-Inhibitory Concentration IC50 SKBR3
Leukemia MV4-11 = experiment: Cell proliferative activity (MTT / cck-8); format: cell-based; conditions: Homo sapiens, read-out: Half-Inhibitory Concentration IC50 MV4-11
Description: (§1) Tumor cell line A375: human melanoma cell; H460: lung adenocarcinoma cell; Hela: human cervical cancer cell; HepG2: human liver cancer cell; and SKOV-3: human ovarian cancer cell, were all purchased from ATCC and cultured to logarithmic phase according to the cultivation protocol recommended by ATCC. The cells in the logarithmic phase were plated onto a 96-well plate at 2000-3000 cells/well; in the case of adherent cells, the cells should be adherent to the wall. […] After that, the cell proliferative activity was determined by MTT assay for the tumor cells representing the solid tumor model and by cck-8 assay for the tumor cells representing the hematologic tumor model.

[1] = tested on: Human ovarian cancer cell SKOV-3; experiment: Cell proliferative activity (MTT / cck-8); format: cell-based; conditions: SK-OV-3, Ovarian cancer, Table 5, read-out: Half-Inhibitory Concentration IC50 SKOV-3
Description: as §1

Multiple myeloma U266 = experiment: Cell proliferative activity (MTT / cck-8); format: cell-based; conditions: Homo sapiens, U-266, read-out: Half-Inhibitory Concentration IC50 U266
Description: as §1

[2] = tested on: Human lung cancer cell H460; experiment: Cell proliferative activity (MTT / cck-8); format: cell-based; conditions: NCI-H460, Lung cancer, Table 5, read-out: Half-Inhibitory Concentration IC50 H460
Description: as §1

[3] = tested on: Human cervical cancer cell Hela; experiment: Cell proliferative activity (MTT / cck-8); format: cell-based; conditions: Cervical cancer, Table 5, read-out: Half-Inhibitory Concentration IC50 Hela
Description: as §1

[4] = tested on: Human liver cancer cell HepG2; experiment: Cell proliferative activity (MTT / cck-8); format: cell-based; conditions: Liver cancer, Table 5, read-out: Half-Inhibitory Concentration IC50 HepG2
Description: as §1

[5] = tested on: Multiple myeloma RPMI8226; experiment: Cell proliferative activity (MTT / cck-8); format: cell-based; conditions: Homo sapiens, RPMI-8226, read-out: Half-Inhibitory Concentration IC50 RPMI8226
Description: as §1

Leukemia K562 = experiment: Cell proliferative activity (MTT / cck-8); format: cell-based; conditions: Homo sapiens, read-out: Half-Inhibitory Concentration IC50 K562
Description: as §1

B-cell lymphoma Ramos = experiment: Cell proliferative activity (MTT / cck-8); format: cell-based; conditions: Homo sapiens, read-out: Half-Inhibitory Concentration IC50 Ramos
Description: as §1

HDAC10 = HDAC10 (Homo sapiens, UniProt Q969S8); conditions: read-out: IC50 HDAC10; Table 4, Class IIb
Sequence of HDAC10 (Q969S8 whole entry): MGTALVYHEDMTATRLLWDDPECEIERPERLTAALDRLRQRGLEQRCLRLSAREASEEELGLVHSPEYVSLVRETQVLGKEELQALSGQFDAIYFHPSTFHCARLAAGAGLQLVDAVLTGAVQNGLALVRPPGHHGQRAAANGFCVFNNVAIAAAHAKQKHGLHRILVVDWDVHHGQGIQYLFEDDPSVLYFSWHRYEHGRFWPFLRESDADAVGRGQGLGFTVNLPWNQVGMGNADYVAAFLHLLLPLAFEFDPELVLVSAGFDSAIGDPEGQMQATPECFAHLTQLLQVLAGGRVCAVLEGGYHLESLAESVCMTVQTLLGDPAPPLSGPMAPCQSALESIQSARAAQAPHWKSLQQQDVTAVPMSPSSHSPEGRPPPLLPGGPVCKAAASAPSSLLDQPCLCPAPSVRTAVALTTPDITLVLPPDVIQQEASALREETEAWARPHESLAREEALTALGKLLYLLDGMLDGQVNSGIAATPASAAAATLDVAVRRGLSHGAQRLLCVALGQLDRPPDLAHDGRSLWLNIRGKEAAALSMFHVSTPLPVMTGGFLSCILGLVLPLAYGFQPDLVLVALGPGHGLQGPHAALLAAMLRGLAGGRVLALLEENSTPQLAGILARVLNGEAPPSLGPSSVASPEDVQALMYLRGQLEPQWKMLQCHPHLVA
Description: The HDAC inhibitory activity was determined by fluorescence-coupled acetylated peptide substrate assay (Lys-Ac-AMC). HDAC1 protein was purchased from BPS Bioscience, and the reaction buffer system was a modified tris(hydroxymethyl)aminomethane buffer (pH 7.0). The small molecule compounds of the present invention were prepared by being dissolved in 100% DMSO. HDAC was prepared in a buffer at a certain concentration as an enzyme solution; trypsin and fluorescent group 4-amino-7-coumarin coupled-acetylated peptide (Ac-peptide) substrate were prepared in a buffer at a certain concentration as a substrate solution. The compounds were added into the reaction wells in a 384-well plate at a designed concentration of 10 μM, 1 μM, 0.5 μM, 0.1 μM, 0.05 μM, 0.01 μM, 0.005 μM, 0.001 μM, and 0.00005 μM, respectively, and then 15 μl of the HDAC solution was added into the reaction wells (15 μl of blank buffer to the control well). […] The results were analyzed by GraphPad Prism software and IC50 values were calculated according to the formula: Y=Background Data+(Top Data−Background Data)/(1+10^((Log IC50−X) a curve slope)), where Y: the inhibition rate (%) and X: the concentration of the compound.

Ramos cells = experiment: Therapeutic effect on the B-cell lymphoma Ramos subcutaneous tumor model; format: in vivo, NOD/SCID mice; conditions: 40 mg/kg intragastrically once every other day, 6 times, vs solvent group
Ovarian cancer A2780s = experiment: Cell proliferative activity (MTT / cck-8); format: cell-based; conditions: Homo sapiens, read-out: Half-Inhibitory Concentration IC50 A2780s
Lung cancer A549 = experiment: Cell proliferative activity (MTT / cck-8); format: cell-based; conditions: Homo sapiens, read-out: Half-Inhibitory Concentration IC50 A549
[6] = tested on: acetylation level of HDAC substrate (Ac-α-tubulin, Ac-H3); experiment: Western blot assay for detecting the level of acetylated proteins; format: cell-based; conditions: HCT116 cells (FIG. 3) or MV4-11 cells (FIG. 4)
Description: The compounds or the positive control compound were added into each group of cells already adherent to the walls (2×10^6 HCT116 cells or 5×10^6 MV4-11 cells) at a designed concentration. After treatment for 4 hours, trypsin was added for digestion, followed by collecting the cells. After washing with cold PBS twice, the cells were lysed by adding RIPA lysis solution (which was purchased from Beyotime, Art. No.: P0013B, adding 1 mM PMSF before use), allowing for lysis on ice for 30 minutes while vortexing at intervals. The lysate was subjected to ultrasonic treatment on an ice bath (ultrasonicated for 3 seconds and repeated 5 times for each group at an interval of 10 seconds). The supernatant was collected by centrifugation at 12,000 g for 20 min at 4° C. and then mixed the SDS-PAGE loading buffer (purchased from Beyotime, Art. No.: P0015F). The mixture was heated in boiling water for 5 minutes to obtain a protein sample. The protein concentration of the sample was quantified by BCA method. 20 […] total protein from each group was subjected to 15% SDS-PAGE electrophoresis, and 5μl of a pre-stained protein marker (purchased from Thermo, Art. No.: 26616) was loaded to an additional selective lane in order to compare protein molecular weights as well as to detect the transmembrane result. When the bromophenol blue bands ran close to the bottom of the gel, the electrophoresis was terminated and the proteins on the gel were transferred to a PVDF membrane at a pore size of 0.22 μm. After 1.5 hours of transmembrane at a constant current of 200 mA, the PVDF membrane was removed and blocked in 5% skimmed milk for 1 hour. After completion of blocking, the membrane was incubated with the primary antibody (Ac-H3 antibody was purchased from Santa Cruz, Art. No.: sc-56616; Ac-α-tubulin antibody was purchased from Santa Cruz, Art. No.: sc-23950) overnight at 4° C. and then washed with TBS/T for 10 minutes for 3 times. The membrane was incubated with the horseradish peroxidase-coupled secondary antibody at room temperature for 1 hour, and then washed with TBS/T for 10 minutes for 3 times. After washing with TBS for 5 minutes, the membrane was exposed and developed by using a film in the darkroom. The detected GAPDH protein was an internal reference protein (GAPDH antibody was purchased from ZSGB-Bio, Art. No.: TA-08).

[7] = clinical data; cited from earlier work
A2780s cells = conditions: A2780s model, 100 mg/kg intragastrically once every other day, 16 times

For `O=C(CCCCCCNC(=O)c1cnc(N(c2ccccc2)c2ccccc2)nc1)NO` [ACY-1215, reference compound], the tumor inhibitory rate (HBL-1 cells) was 26.75%, the IC50 (Colon cancer HT29) was > 5 µM and the IC50 (Colon cancer HCT116) was > 5 µM. The IC50 (Breast cancer SKBR3) was > 5 µM, the IC50 (Leukemia MV4-11) was > 5 µM and the IC50 [1] was > 5 µM. The IC50 (Multiple myeloma U266) was > 5 µM, the IC50 [2] was > 5 µM and the IC50 [3] was > 5 µM. The IC50 [4] was > 5 µM, the IC50 [5] was 1.47 ± 0.31 µM and the IC50 (Leukemia K562) was > 5 µM. The IC50 (B-cell lymphoma Ramos) was > 5 µM, the IC50 (HDAC10) was 0.194 ± 0.054 µM and the tumor inhibitory rate (Ramos cells) was “no inhibitory effects of tumor growth”. For the same compound, the IC50 (Ovarian cancer A2780s) was > 5 µM and the IC50 (Lung cancer A549) was > 5 µM.

For `O=C(CCCCCCC(=O)Nc1ccccc1)NO` [SAHA, reference compound], the “acetylation of H3 (Ac-H3)” value [6] is given as “up-regulate acetylation of tubulin and H3”, the “acetylation of α-tubulin” value [6] is given as “up-regulate acetylation of tubulin and H3” and the toxic side effects [7] is given as “thrombosis and neurotoxicity”. The “death of mice during the experiment” value (A2780s cells) was “one mouse died”.
